Where a name gives a salt, the structure may show the parent alone.
Tests used:
[1] = tested on: C57BL/6 mice immunized with hen egg lysozyme; test: T Cell In Vivo Functional Assay (HEL immunization, ex vivo recall); parameters: species or system mouse; conditions: 200 mg/kg oral twice a day, 7 days; relative to vehicle
Experimental: To determine the effect of compounds of Formula I on T cell responses, the following experiment was conducted. On Day O, C57BL/6 (Jackson Laboratories #000664, 6-8 weeks of age) were immunized at the base of the tail with 100 μg of hen egg lysozyme (HEL; Sigma #L7773) with complete Freund's adjuvant (CFA; Sigma #F5881). Starting on Day 0 and continuing until Day 7, mice were dosed twice a day by oral administration with vehicle (water) or the compound of Example 26 (200 mg/kg). On Day 7, opopiteal lymph nodes were removed, single cell suspensions were prepared and 500,000 cells in 200 μL were activated in 96 well plates with the indicated dose of HEL peptide. Following incubation for 72 hours at 37° C., 5% CO2, supernatants were harvested for IFNγ ELISA (R&D Systems catalog #MIF00) and proliferation was assessed using the CellTitre-Glo™ luminescent assay (Promega, Catalog #G7571) with both assays performed according to the manufacturer's protocol. ELISA plates were quantified relative to a standard curve using Molecular Devices Versamax Reader at […] and Softmax Pro software; proliferation was quantitated on a Packard TopCount instrument using luminescence protocol and data was analyzed using excel software.

[2] = tested on: C.B17/Icr-Prkdc^scid/IcrIcoCrl mice, adoptive transfer model of IBD; test: CD4+CD45RBhi Adoptive Transfer Inflammatory Bowel Disease; format: in vivo, mouse; conditions: 200 mg/kg oral twice daily, 21 days of treatment
Experimental: On Day 0, CD4+ T cells were isolated from the spleens of female Balb/cAnNCrl mice (Charles River Laboratories; 12 weeks old) as described in Example E. The resulting cells were labeled with fluorescent antibodies against CD4 and CD45 markers and were sorted by flow cytometry for CD4+CD45RBhi cells based on fluorescence. 400,000 CD4+CD45RBhi cells were then injected intraperitoneally into C.B17/Icr-Prkdc^scid/IcrIcoCrl mice (Charles River Laboratories strain code 236; 12 weeks old). This injection of cells is known to those skilled in the art as adoptive transfer. […]
For each H&E stained section, submucosal edema was quantitated by measuring the distance from the muscularis mucosa to the internal border of the outer muscle layer in a non-tangential area thought to most representative the severity of this change. Mucosal thickness was also measured in a non-tangential area of the section that best represented the overall mucosal thickness. […]
The parameters reflecting epithelial cell loss/damage were scored individually using a % area involved scoring method: […]
The three scored parameters (inflammation, glandular epithelial loss, and erosion) were ultimately summed to arrive at a sum of histopathology scores, which indicates the overall damage and would have a maximum score of 15.

Compound: F[C@@H]1CNCCC1Oc1cccc2ccc(-c3nnc4ccccn34)nc12 (stereo in doubt) [Example 26, 2-([1,2,4]triazolo[4,3-a]pyridin-3-yl)-8-((cis)-3-fluoropiperidin-4-yloxy)quinoline dihydrochloride]
- ex vivo HEL-specific proliferation [1]: decreased
- ex vivo IFNγ production [1]: decreased
- colon histopathology scores (inflammation, gland loss, erosion) [2]: reduced severity of disease
- decrease in mucosal thickening relative to vehicle [2]: 84%
